Assay type in all cases: cell-based
Test [1] deals with human keratinocytes. As to the kind of experiment: Lipid Analysis (ceramides expression). Particulars: for CERAMIDES % of CONTROL / CERAMIDES (ng/μg PROTEIN ± S.D.): three days. On the procedure: (§1) Normal human keratinocytes, isolated from neonatal foreskin by trypsin treatment, were grown in Dulbecco's Modified Eagle's Medium (DMEM, Life Technologies, Grand Island, N.Y.) with 10% fetal bovine serum in the presence of irradiated mouse fibroblasts for establishing dividing keratinocyte colonies. Cells were incubated until their second passage and stored at −70° C. for future use. All incubations took place at 37° C. with 5% CO2. Frozen second passage keratinocytes were thawed and plated in T-175 flasks (Corning, Corning, N.Y.) with DMEM and grown for five days. After reaching 80% confluence, they were trypsinized and seeded into 6-well plates containing keratinocyte growth medium (KGM, Clonetics, San Diego, Calif.) with 0.15 mM calcium.
A sample of the keratinocytes that were grown in the keratinocyte culture described above were placed in KGM (2 ml per well) at 0.2 million per 6-well plates and re-grown for five days until approximately 20% confluence was reached. Cells were fed and treated with pulegone as described above for the TG-1 Assay. After three days of treatment, cells were rinsed twice with PBS, then harvested by adding 3 ml of 0.1 N NaOH (Fisher) to each well and scraping with a rubber policeman. The supernatants were transferred to 16 mm×100 mm glass test tubes with teflon-coated caps and incubated for 1 hour at 70° C. After cooling to room temperature, a 50 μl aliquot was removed for protein determination (Pierce BCA assay, Rockford, Ill.). To each tube 320 μl of 1 N HCl and 2.5 ml of chloroform were added and the tubes mixed well. The tubes were then placed on a tumbler and agitated for thirty minutes. The mixtures were then centrifuged for 10 minutes at 2000×g. 2 mL of chloroform were removed from the organic phase and placed in an autosampler vial. The samples were then dried evaporated under N2, resuspended in 60 μl of chloroform:methanol 2:1 and transferred to an autosampler insert microtube which was placed inside another autosampler vial whcih was sealed. 40 μl of the sample was spotted (Camag Automatic TLC Sampler III, Wilmington, N.C.) on silica TLC plates (Whatman 4807-700) and the plates were developed in horizontal chambers (Camag) using the following solvent system: 1. 95:4.5:0.5 chloroform, methanol, acetic acid and 2. 60:40:2 hexane, ethyl ether, acetic acid. Following immersion in 10% copper sulfate in 8% phosphoric acid, plates were charred at 165° C. for 20 minutes and then read in a densitometer (Camag TLC Scanner II). The results were expressed in ng cermaides/μg protein.
(§2) Concentrations used in the examples below are of pulegone in a corn oil droplet. The in vitro concentration may not be relevant to in vivo concentration because there is partitioning between the oil and the culture medium. The medium concentration of the active is not the oil droplet concentration of the active. For the pulegone to elicit its effect on the cultured cells, it must diffuse out of the corn oil into the culture medium where it is then accessible to the cells. The pulegone concentration in the culture medium is therefore considerably less than the concentration in the corn oil droplet.

For test [2], the system named is human keratinocytes. Nature of the test: Transglutaminase (TG-1) Assay. Particulars: for TG-1/DNA % of CONTROL / TG-1/DNA (Absorbance/Arbitrary Units of DNA ± Standard Deviation): three days. On the procedure:
as §1
A sample of the keratinocytes grown in the keratinocyte culture described above, were placed in KGM (2 ml per well) at 0.2 million cells/plate in 6-well plates and re-grown for five days until the cells reached approximately […], since TG-1 only begins to become expressed after confluence. […] One set of triplicate wells was left untreated to serve as control. After three days of incubation, cells were washed thoroughly with phosphate buffered saline (PBS, 10 mM sodium phosphate, 138 mM sodium chloride, 2.7 mM potassium chloride, pH 7.4) and placed at −70° C. for 2 hours. Cells were then thawed for two hours. The DNA content of cells was quantified by using the DNA-binding fluorophore, bis-benzimidazole (Hoechst 33258) and measuring the specific fluorescence of the DNA-bound fluorophore (360 nm excitation, 450 nm emission). Cellular TG-1 levels were determined by using a transglutaminase-1 (TG-1) specific monoclonal antibody as the primary antibody (BC1, Amersham, UK) and a peroxidase labeled rabbit antimouse IgG as the secondary antibody (Amersham, UK). The plates were blocked at room temperature with 5% nonfat milk in Tris-buffered saline (TBS, 10 mM Tris, 150 mM NaCL, pH 8.0) for one hour followed by two hours incubation with the primary antibody (1:4000 dilution) in 1% milk/TBS at room temperature. After rinsing the plates three times with 1% milk/TBS containing 0.05% Tween 20 (Bio-Rad, Hercules, Calif.), the plates were incubated with a 1:4000 dilution of the secondary antibody at room temperature for two hours. The plates were then rinsed three times with 1% milk/0.05% Tween 20/TBS and three times with PBS. Color was developed by incubation with o-phenylene-diamine (Sigma, St. Louis, Mo.) and hydrogen peroxide (Sigma) dissolved in a 1:1 mixture of 0.2 M dibasic sodium phosphate (Sigma) and 0.1 M citric acid at pH 5.0(Sigma). Solutions were transferred to 4 mL plastic cuvets (Fisher Scientific, Pittsburgh, Pa.) and the absorbance was read at 492 nm on an Ultraspec 3000 spectrophotometer (Pharmacia, Piscataway, N.J.) and TG-1 levels were expressed as absorbence/DNA fluoroscence.
as §2

Test [3] has as its system human keratinocytes. Nature of the test: Glucose Uptake Assay (3H 2-deoxy-glucose). The conditions noted are these: for GLUCOSE UPTAKE % of CONTROL / GLUCOSE UPTAKE (cpm/μg PROTEIN ± S.D.): 4 hours preincubation. On the procedure:
as §1
A sample of the keratinocytes grown in the keratinocyte culture described above, were plated in KGM medium at either 0.5 or 1 million cells/plate in six well plates and incubated for 4 days. The medium was then aspirated, and the wells were rinsed twice with Phosphate Buffered Saline (PBS), then the plates were incubated (1 mL/well) for 24 hours. The medium was replaced with fresh KBM, 10 μl of corn oil containing pulegone at various concentrations were added and cells were allowed to incubate (for 4 hours at 37° C.) before 2 μCi of ^3H 2-deoxy-glucose (Amersham, UK) were added to each well. Samples were then incubated for one hour. The medium was aspirated and wells were rinsed three times with PBS before the addition of 500 μL of 0.1N NaOH/well. After 10 minutes of agitation on a shaker, a 25 μL aliquot was removed for protein analysis, and 200 μL were transferred to a scintillation vial containing 5 mL Scintillation cocktail (Scintiverse) and counting was performed on a Beckman counter. ^3H-Glucose uptake results were expressed as CPM/μg protein.
as §2

[4] abbreviates: pulegone 1% in corn oil droplet.
[5] abbreviates: pulegone 2.5% in corn oil droplet.
Setting [6] is: pulegone 5% in corn oil droplet.

Molecules are shown by their SMILES.

In the case of `CC(C)=C1CCC(C)CC1=O` (stereo not shown) [Pulegone, 5-Methyl-2-(1-methylethylidene)cyclohexanone], the “CERAMIDES % of CONTROL” value is listed as 65% with human keratinocytes [1] (setting [4]), 171% with human keratinocytes [1] (setting [5]) and 308% with human keratinocytes [1] (setting [6]). In addition, the “CERAMIDES (ng/μg PROTEIN ± S.D.)” value was 8.97 ± 1.17 ng/μg PROTEIN with human keratinocytes [1] (setting [4]), 23.8 ± 11.0 ng/μg PROTEIN with human keratinocytes [1] (setting [5]) and 42.8 ± 6.91 ng/μg PROTEIN with human keratinocytes [1] (setting [6]). Also, the “expression of ceramides in comparison to untreated keratinocytes” value in the test with human keratinocytes [1] (pulegone in corn oil) is “increased expression of ceramides”. Also, the “TG-1/DNA % of CONTROL” value in the test on human keratinocytes [2] (setting [4]) came to 121%; with human keratinocytes [2] (setting [5]), 196%; with human keratinocytes [2] (setting [6]), 286%. The “TG-1/DNA (Absorbance/Arbitrary Units of DNA ± Standard Deviation)” value was 15.45 ± 2.32 Absorbance/Arbitrary Units of in the test with human keratinocytes [2] (setting [4]), 24.96 ± 4.85 Absorbance/Arbitrary Units of with human keratinocytes [2] (setting [5]) and 36.40 ± 0.89 Absorbance/Arbitrary Units of with human keratinocytes [2] (setting [6]). Further, the “transglutaminase-1 expression in comparison to untreated keratinocytes” value in the test with human keratinocytes [2] (pulegone at 2.5% and 5% in corn oil) is on record as “increased transglutaminase-1 expression”. Further, the “GLUCOSE UPTAKE % of CONTROL” value is 77% with human keratinocytes [3] (setting [4]) and 189% in the test with human keratinocytes [3] (setting [6]). Also, the “GLUCOSE UPTAKE (cpm/μg PROTEIN ± S.D.)” value in the test on human keratinocytes [3] (setting [4]) came out at 3.71 ± 0.35 cpm/μg PROTEIN; with human keratinocytes [3] (setting [6]), 9.14 ± 0.69 cpm/μg PROTEIN. For the same compound, the glucose uptake result in the test on human keratinocytes [3] (pulegone in corn oil) is on record as “significantly increased glucose uptake”.
